Measurements from patent US10195164B2, “Use of disulfiram for inflammatory breast cancer therapy” (Duke University, priority 2015, dated 2019).

Experiments:
[1] = tested on: ctr1/ctr3Δ mutant MPY17 S. cerevisiae cells; test: Complementation of S. cerevisiae Cu+-transport mutants; assay type: cell-based, Saccharomyces cerevisiae; details: YPEG media, 30° C., 3 days, absorbance at 600 nm
Method: SEY6210 (wild type) (Robinson et al., 1988) and ctr1/ctr3Δ mutant MPY17 S. cerevisiae cells (Pena et al., 1998) were grown in YPEG media (3% ethanol, 3% glycerol, 1% yeast extract, 2% Bacto Peptone, 2% agar) with addition of 0-50 μM known Cu ionophore, zinc pyrithione (ZPT) (Reeder et al., 2011), or DSF. Cells were allowed to grow at 30° C. for 3 days; growth was assessed by measuring optical density at 600 nm on a Spectramax Plus 384 plate reader (Molecular Devices).

[2] = tested on: rSUM149 cells; test: Trypan blue viability assay; assay type: cell-based, human; details: for effect of Cu chelator on DSF-Cu-induced cell death: BCS 100 μM, TM 10 μM
Method: (§1) Cells were treated for 24 h in regular growth medium with Disulfiram (Sigma), CuSO4 (VWR), SOD mimetic (MnTnHex-2-PyP^5+), bathocuproine disulfonate (BCS, Sigma), and tetrathiomolybdate (TM, Sigma). Cell viability was determined by trypan blue exclusion as described previously (Aird et al., 2008) where % viability was calculated as live cells/total cells×100.

[3] = tested on: tumor xenografts; test: Tumor radiation control curve with MnSOD mimic; assay type: in vivo
[4] = tested on: IBC cells; test: Trypan blue viability assay, IBC cell lines overall; assay type: cell-based
Method: as §1

[5] = tested on: SUM149 cells; test: Trypan blue viability assay; assay type: cell-based, human; details: for effect of Cu chelator on DSF-Cu-induced cell death: BCS 100 μM, TM 10 μM
Method: as §1

[6] = accepted daily dosing of 250-500 mg, human plasma; cited from earlier work
[7] = tested on: BCM2 Xenograft brain metastatic cells; details: due to upregulation of GSH; cited from earlier work
[8] = tested on: IBC cells (SUM149, rSUM149); test: Cell-associated Cu in cell lysates by ICP-HRMS; assay type: cell-based; details: 10 μM Cu, 24 h
Method: Cell lysates were prepared as above. For tumors, a portion of each tumor was placed into tissue lysis buffer (GoldBio Technology) and homogenized using the Bullet Blender Storm and lysis beads (MidSci). Lysates were analyzed for Cu content using a Thermo Scientific Element 2 inductively coupled plasma high-resolution mass spectrometer (ICP-HRMS) at the W. M. Keck Elemental Geochemistry Laboratory (University of Michigan, Ann Arbor, Mich.), and Cu content of lysis buffer blank was subtracted from each sample. Values were normalized to protein for reporting as ng Cu/mg protein.

[9] = tested on: ALDH; test: ALDEFLUOR assay; assay type: cell-based, human; details: SUM149 cells, 24 h, sub-lethal dose
Method: ALDH enzymatic activity was assessed using the ALDEFLUOR kit (Stem Cell Technologies) according to the manufacturer's instructions. Briefly, cells were incubated with ALDH substrate for 35 minutes at 37° C. The specific ALDH inhibitor diethylaminobenzaldehyde (DEAB) was used as negative control. Sorting gates were established using 7-AAD stained cells for viability and ALDEFLUOR-stained cells treated with DEAB as negative controls. Dot plots from a representative experiment are shown with mean±SEM from four experiments.

[10] = tested on: Nrf2; test: Nrf2 activity assay (ARE luciferase reporter); assay type: cell-based; details: Cu 10 μM, DSF 10-20 μM, DSF-Cu 150 nM
Method: Cells in opaque 96-well plates (Greiner Bio-One) were transfected with pGL4.37 (ARE firefly luciferase reporter, Promega) and pGL4.75 (Renilla luciferase control, Promega) plasmids using a 3:1 ratio of […] (Roche Applied Science, Indianapolis, Ind.) to DNA. The next day, cells were treated with as indicated. After 24 h, the Dual-Glo Luciferase Assay System (Promega) was used and luminescence read on a Veritas microplate luminometer (Turner BioSystems). Firefly luminescence was normalized to Renilla luminescence for each sample, and this value normalized to untreated.

zinc pyrithione [ZPT]
growth of MPY17 cells [1]: grew similarly to the SEY6210 cells

MnTnHexyl-2-PyP^5+
effect of SOD mimetic on DSF-Cu cell death ([2]; 100-200 μM SOD mimetic): blocked cell death caused by DSF-Cu treatment

MnBuOE
dose modifying factor ([3]; radiosensitization of xenograft tumors): 1.3
TCD50 dose ([3]; total RT applied in 5 fractions, treatment pre- and post-RT, saline controls 47Gy): 36.5 Gy

CCN(CC)C(=S)SSC(=S)N(CC)CC [DSF, Disulfiram]
concentrations at which DSF induced toxicity ([4]; DSF alone): greater than 10 μM
IC50 ([5]; Homo sapiens, SUM149, DSF alone, 24 h, trypan blue exclusion): ~17 µM
IC50 ([2]; Homo sapiens, DSF alone, 24 h, trypan blue exclusion): 25 to 30 µM
plasma concentration [6]: < 2 µM

CC(C)C[C@H](NC(=O)[C@H](Cc1ccccc1)NC(=O)c1cnccn1)B(O)O [bortezomib]
fold less sensitive to bortezomib [7]: drugs; brain metastatic cells 60-fold less

Cc1cc(-c2ccc(S(=O)(=O)O)cc2)c2ccc3c(-c4ccc(S(=O)(=O)O)cc4)cc(C)nc3c2n1 [BCS, bathocuproine disulphonate]
effect of Cu chelator on DSF-Cu-induced cell death [5]: almost completely blocked DSF-Cu-induced cell death
effect of Cu chelator on DSF-Cu-induced cell death [2]: almost completely blocked DSF-Cu-induced cell death

O=S(=O)([O-])[O-].[Cu+2] [Cu, CuSO4]
cytotoxicity ([4]; Cu alone (10 μM), 24 h): not cytotoxic
Cu accumulation [8]: slight increase
ALDH+ population [9]: neither DSF nor Cu alone affected
Nrf2 transcriptional activity [10]: induced Nrf2 transcriptional activity

[SH-].[SH-].[S]=[Mo]=[S] [TM, tetrathiomolybdate]
effect of Cu chelator on DSF-Cu-induced cell death [5]: almost completely blocked DSF-Cu-induced cell death
effect of Cu chelator on DSF-Cu-induced cell death [2]: almost completely blocked DSF-Cu-induced cell death
